Converted amounts (≈) assume the structure as drawn. “And” between values parts separate entries of the source, which are not always exact repeats. Identical values can stand only once.
Tests used:
MDCK [1] = assay: Cytotoxicity was measured by Anti-influenza A virus Ishikawa/7/82 in MDCK cells by MTT assay; assay type: functional; settings: Canis lupus familiaris
MDCK [2] = assay: Effective concentration required to determine Anti-influenza A virus Ishikawa/7/82 in MDCK cells by MTT assay; assay type: functional, cell-based; settings: Canis lupus familiaris
[3] = Selectivity index for effective concentration to that of Cytotoxicity in MDCK cells by MTT assay; assay type: functional
MDCK [4] = assay: The compound was evaluated for inhibitory effect on the replication of influenza A subtype H1N1 Bangkok/10/83 strain in MDCK cells; assay type: functional, cell-based; settings: Canis lupus familiaris
MDCK [5] = assay: The compound was evaluated for inhibitory effect on the replication of influenza A subtype H1N1 PR8/34 strain in MDCK cells; assay type: functional, cell-based; settings: Canis lupus familiaris
MDCK [6] = assay: The compound was evaluated for cytotoxicity by MTT assay in MDCK cells; assay type: functional; settings: Canis lupus familiaris
MDCK [7] = assay: The compound was evaluated for inhibitory effect on the replication of influenza A subtype H1N1 yamagata/120/86 strain in MDCK cells; assay type: functional, cell-based; settings: Canis lupus familiaris
MDCK [8] = assay: The compound was evaluated for inhibitory effect on the replication of influenza A subtype H2N2 Adachi/2/57 in MDCK cells; assay type: functional, cell-based; settings: Canis lupus familiaris
MDCK [9] = assay: The compound was evaluated for inhibitory effect on the replication of influenza A subtype H2N2 murakami/4/64 strain in MDCK cells; assay type: functional, cell-based; settings: Canis lupus familiaris
MDCK [10] = assay: The compound was evaluated for inhibitory effect on the replication of influenza A subtype H3N2 ishikawa/7/82 in MDCK cells; assay type: functional, cell-based; settings: Canis lupus familiaris
MDCK [11] = assay: The compound was evaluated for inhibitory effect on the replication of influenza A subtype H3N2 Philippine/2/82 in MDCK cells; assay type: functional, cell-based; settings: Canis lupus familiaris
MDCK [12] = assay: The compound was evaluated for inhibitory effect on the replication of influenza B norway/1/80 strain in MDCK cells; assay type: functional, cell-based; settings: Canis lupus familiaris
MDCK [13] = assay: The compound was evaluated for inhibitory effect on the replication of influenza B Singapore/222/79 strain in MDCK cells; assay type: functional, cell-based; settings: Canis lupus familiaris
[14] = Selectivity index ratio of CC50 / EC50 was determined; assay type: functional

Structure (SMILES) | CC50 (MDCK [1]) | EC50 (MDCK [2]) | Selectivity index [3] | other results
C=CC1CN2CCc3c([nH]c4ccccc34)C2C[C@@H]1/C(=C\OC)C(=O)OC (some centres undefined) | 25.2 µg/mL (≈ 68.8 µM) | 1.8 µg/mL (≈ 4.91 µM) | 14 | 
CC[C@H]1CN2CCc3c(n(C)c4ccccc34)[C@H]2C[C@@H]1/C(=C\OC)C(=O)OC | 25.3 µg/mL (≈ 66.1 µM) | 1.7 µg/mL (≈ 4.44 µM) | 15.8 | 
CCO/C=C(\C(=O)OC)[C@H]1C[C@@H]2c3[nH]c4ccccc4c3CCN2C[C@@H]1CC | 32.4 µg/mL (≈ 84.7 µM) | 0.9 µg/mL (≈ 2.35 µM) | 36.4 | 
CC[C@H]1C[N+]2(C)CCc3c([nH]c4ccccc34)[C@H]2C[C@@H]1/C(=C\OC)C(=O)OC (some centres undefined) | > 100 µg/mL | > 100 µg/mL |  | 
CC[C@H]1C[N+]2([O-])CCc3c([nH]c4ccccc34)[C@H]2C[C@@H]1/C(=C\OC)C(=O)OC (some centres undefined) | > 100 µg/mL | 86.4 µg/mL (≈ 225 µM) | >1.2 | 
C=C(C(=O)OC)[C@H]1C[C@@H]2c3[nH]c4ccccc4c3CCN2C[C@@H]1CC | 62.1 µg/mL (≈ 183 µM) | > 62.1 µg/mL |  | 
CC[C@H]1CN2CCc3c([nH]c4ccccc34)[C@H]2C[C@@H]1C(/C=N\C)=C(/O)OC | 3.9 µg/mL (≈ 10.6 µM) | > 3.9 µg/mL |  | 
CC[C@H]1CN2CCc3c([nH]c4ccccc34)[C@H]2C[C@@H]1/C(C=O)=C(/O)OC | 8.4 µg/mL (≈ 23.7 µM) | > 8.4 µg/mL |  | 
CC[C@H]1CN2CCc3c([nH]c4ccccc34)[C@H]2C[C@@H]1/C(=C/OC)C(=O)O | 39.2 µg/mL (≈ 111 µM) | > 39.2 µg/mL |  | 
CC[C@H]1CN2CCc3c([nH]c4ccccc34)[C@H]2C[C@@H]1/C(=C\OC)C(=O)OC [HIRSUTINE] |  |  |  | EC50 (MDCK [4]): > 23.5 µg/mL; EC50 (MDCK [5]): > 23.5 µg/mL; CC50 (MDCK [6]): 23.5 µg/mL (≈ 63.8 µM); EC50 (MDCK [7]): > 23.5 µg/mL; EC50 (MDCK [8]): > 23.5 µg/mL; EC50 (MDCK [9]): > 23.5 µg/mL; EC50 (MDCK [10]): 0.4 µg/mL (≈ 1.09 µM); EC50 (MDCK [11]): 0.57 µg/mL (≈ 1.55 µM); EC50 (MDCK [12]): > 23.5 µg/mL; EC50 (MDCK [13]): > 23.5 µg/mL; Ratio [14]: 58.8 and 41.2
CC[C@H]1CN2CCc3c([nH]c4ccccc34)[C@@H]2C[C@@H]1/C(=C/OC)C(=O)OC [DIHYDROCORYNANTHEINE] | 86.3 µg/mL (≈ 234 µM) | > 86.3 µg/mL |  | 
CC[C@H]1CN2CCc3c([nH]c4cccc(OC)c34)[C@H]2C[C@@H]1/C(=C\OC)C(=O)OC | 40.7 µg/mL (≈ 102 µM) | 0.5 µg/mL (≈ 1.25 µM) | 76.8 | 
CC[C@@H]1CN2CCc3c([nH]c4ccccc34)[C@@H]2C[C@@H]1/C(=C\OC)C(=O)OC [CORYNANRHEIDINE] | 45.1 µg/mL (≈ 122 µM) | > 45.1 µg/mL |  | 
CC[C@H]1CN2CC[C@]3(O)C(=Nc4ccccc43)[C@H]2C[C@@H]1/C(=C\OC)C(=O)OC | > 100 µg/mL | > 100 µg/mL |  | 
NC(=O)c1ncn([C@@H]2O[C@H](CO)[C@@H](O)[C@H]2O)n1 [RIBAVIRIN] |  |  |  | EC50 (MDCK [4]): 34.2 µg/mL (≈ 140 µM); EC50 (MDCK [5]): 8.3 µg/mL (≈ 34 µM); CC50 (MDCK [6]): > 100 µg/mL; EC50 (MDCK [7]): 11.7 µg/mL (≈ 47.9 µM); EC50 (MDCK [8]): 2.2 µg/mL (≈ 9.01 µM); EC50 (MDCK [9]): 2.1 µg/mL (≈ 8.6 µM); EC50 (MDCK [10]): 7.9 µg/mL (≈ 32.3 µM); EC50 (MDCK [11]): 6.1 µg/mL (≈ 25 µM); EC50 (MDCK [12]): 5.5 µg/mL (≈ 22.5 µM); EC50 (MDCK [13]): 8.5 µg/mL (≈ 34.8 µM)
CC[C@H]1CN2Cc3c(nc4ccccc4c3O)[C@H]2C[C@@H]1/C(=C\OC)C(=O)OC | 38.1 µg/mL (≈ 99.6 µM) | > 38.1 µg/mL |  | 

Reference: ChEMBL document CHEMBL1129818, “Discovery of anti-influenza A virus activity of a corynanthe-type indole alkaloid, hirsutine, in vitro and the structure-activity relationship of natural and synthetic analogs” (Bioorg Med Chem Lett, 1997)
